One data set deals with Sphaerotheca fuliginea. Nature of the data set: in vivo preventive test on Sphaerotheca fuliginea (cucumber). The settings on record: 500 ppm of active ingredient, evaluated 7 days after inoculation. The protocol:
Solvent: 49 parts by weight of N,N-dimethylformamide Emulsifier: 1 part by weight of Alkylarylpolyglycolether To produce a suitable preparation of active compound, 1 part by weight of active compound is mixed with the stated amounts of solvent and emulsifier, and the concentrate is diluted with water to the desired concentration. To test for preventive activity, young plants are sprayed with the preparation of active compound at the stated rate of application. One day after this treatment, the plants are inoculated with an aqueous spore suspension of Sphaerotheca fuliginea. Then the plants are placed in a greenhouse at approximately 23° C. and a relative atmospheric humidity of approximately 70%. The test is evaluated 7 days after the inoculation. 0% means an efficacy which corresponds to that of the untreated control, while an efficacy of 100% means that no disease is observed.

The next data set concerns Alternaria solani. Nature of the data set: in vivo preventive test on Alternaria solani (tomato). As to conditions: 500 ppm of active ingredient, evaluated 7 days after inoculation. The protocol:
Solvent: 49 parts by weight of N,N-dimethylformamide Emulsifier: 1 part by weight of Alkylarylpolyglycolether To produce a suitable preparation of active compound, 1 part by weight of active compound is mixed with the stated amounts of solvent and emulsifier, and the concentrate is diluted with water to the desired concentration. To test for preventive activity, young plants are sprayed with the preparation of active compound at the stated rate of application. One day after this treatment, the plants are inoculated with an aqueous spore suspension of Alternaria solani. The plants remain for one day in an incubation cabinet at approximately 22° C. and a relative atmospheric humidity of 100%. Then the plants are placed in an incubation cabinet at approximately 20° C. and a relative atmospheric humidity of 96%. The test is evaluated 7 days after the inoculation. 0% means an efficacy which corresponds to that of the untreated control while an efficacy of 100% means that no disease is observed.

For another data set, the system named is Pyrenophora teres. Nature of the data set: in vivo preventive test on Pyrenophora teres (barley). As to conditions: 500 ppm of active ingredient, evaluated 7-9 days after inoculation. As to the method:
Solvent: 49 parts by weight of N,N-dimethylformamide Emulsifier: 1 part by weight of alkylaryl polyglycol ether To produce a suitable preparation of active compound, 1 part by weight of active compound is mixed with the stated amounts of solvent and emulsifier, and the concentrate is diluted with water to the desired concentration. To test for preventive activity, young plants are sprayed with the preparation of active compound at the stated rate of application. One day after this treatment, the plants are inoculated with an aqueous spore suspension of Pyrenophora teres. The plants remain for 48 hours in an incubation cabinet at 22° C. and a relative atmospheric humidity of 100%. Then the plants are placed in a greenhouse at a temperature of approximately 20° C. and a relative atmospheric humidity of approximately 80%. The test is evaluated 7-9 days after the inoculation. 0% means an efficacy which corresponds to that of the untreated control while an efficacy of 100% means that no disease is observed.

Data set [1] in a line: logP by HPLC on reversed-phase column (EEC Directive 79/831 Annex V.A8). The format is physicochemical. As to conditions: 40° C., 0.1% aqueous formic acid and acetonitrile, linear gradient 10% to 90% acetonitrile. The protocol:
In table 1, the logP values were determined in accordance with EEC Directive 79/831 Annex V.A8 by HPLC (High Performance Liquid Chromatography) on a reversed-phase column (C 18), using the method described below: Temperature: 40° C.; Mobile phases: 0.1% aqueous formic acid and acetonitrile; linear gradient from 10% acetonitrile to 90% acetonitrile. Calibration was carried out using unbranched alkan-2-ones (comprising 3 to 16 carbon atoms) with known logP values (determination of the logP values by the retention times using linear interpolation between two successive alkanones). lambda-max-values were determined using UV-spectra from 200 nm to 400 nm and the peak values of the chromatographic signals.

Where [2] appears, read: HPLC on reversed-phase column (C 18).
[3] abbreviates: HPLC, reversed-phase column (C 18).

Here are results for 28 compounds from patent US9320276B2, “N-hetarylmethyl pyrazolylcarboxamides” (BAYER INTELLECTUAL PROPERTY GMBH, priority 2010, dated 2016).

The structures appear in SMILES notation.

For `Cn1nc(C(F)F)c(C(=O)N(Cc2ccnc3ccc(Cl)cc23)C2CC2)c1F` [Example 137], the Efficacy in the data set on Sphaerotheca fuliginea is recorded as 90%; with Alternaria solani, 80%; with Pyrenophora teres, 100%. For the same compound, the logP in data set [1] (setting [2]) was found to be 2.44.
For the compound `Cn1nc(C(F)F)c(C(=O)N(Cc2ccnc3cc(Cl)cc(Cl)c23)C2CC2)c1F` [Example 163], the Efficacy in the data set with Sphaerotheca fuliginea is recorded as 100%; in the data set on Pyrenophora teres, 94%. This compound showed a logP in data set [1] (setting [2]) of 3.39.
Take `Cn1nc(C(F)F)c(C(=S)N(Cc2c(Cl)cncc2Cl)C2CC2)c1F` [Example 117]: the Efficacy is given as 95% with Sphaerotheca fuliginea, 100% in the data set on Alternaria solani and 100% with Pyrenophora teres. For the same compound, in data set [1] (setting [2]), the logP worked out at 3.29.
In turn, `Cn1nc(C(F)F)c(C(=O)NC2(c3cccs3)CCCC2)c1F` [Example 34] registered an Efficacy with Sphaerotheca fuliginea of 70%. For the same compound, the logP in data set [1] (setting [2]) amounted to 2.96.
Regarding `Cn1nc(C(F)F)c(C(=O)N(Cc2c(C(F)(F)F)nn(C)c2OC(F)F)C2CC2)c1F` [Example 170], the Efficacy in the data set on Sphaerotheca fuliginea was found to be 88%; with Alternaria solani, 95%; in the data set with Pyrenophora teres, 100%. In data set [1] (setting [3]), this compound yielded a log partition coefficient (logP) of 2.76.
With `CC(c1cnc(Cl)c(Cl)c1)N(C(=O)c1c(C(F)F)nn(C)c1Cl)C1CC1` (centres unmarked) [Example 120], the Efficacy worked out at 90% in the data set on Alternaria solani and 100% in the data set with Pyrenophora teres. For the same compound, the log partition coefficient (logP) in data set [1] (setting [2]) stood at 3.27.
On to `CSc1ncc(C(C(C)C)N(C)C(=O)c2c(C(F)F)nn(C)c2F)c(C(F)(F)F)n1` (centres unmarked) [Example 157], for which the values for the Efficacy in the data set on Alternaria solani and in the data set with Pyrenophora teres were 70% and 90%, respectively. For the same compound, the lipophilicity (logP) in data set [1] (setting [2]) came to 3.46.
For `Cn1nc(C(F)F)c(C(=S)N(Cc2csc3ccc(Cl)cc23)C2CC2)c1F` [Example 145], the Efficacy in the data set on Sphaerotheca fuliginea came out at 93%; in the data set on Alternaria solani, 90%; with Pyrenophora teres, 100%. For the same compound, in data set [1] (setting [2]), the lipophilicity (logP) was 4.36.
As to `Cn1nc(C(F)F)c(C(=O)N(Cc2cnc(Cl)cc2Cl)C2CC2)c1F` [Example 118], the Efficacy came to 95% in the data set on Alternaria solani and 100% in the data set on Pyrenophora teres. This compound displayed a logP in data set [1] (setting [2]) of 2.73.
Regarding `Cn1nc(C(F)F)c(C(=S)N(Cc2cc(C(F)(F)F)nc3ccccc23)C2CC2)c1F` [Example 161], the Efficacy in the data set with Sphaerotheca fuliginea and in the data set with Pyrenophora teres was 100% in each case. In addition, the logP in data set [1] (setting [2]) is listed as 4.26.
For the compound `CN(Cc1cnn(-c2ccccc2)c1)C(=O)c1c(C(F)F)nn(C)c1F` [Example 109], the Efficacy in the data set with Alternaria solani was 95%; in the data set with Pyrenophora teres, 100%. Also, the logP in data set [1] (setting [2]) is given as 2.26.
The matching figures for `CN(Cc1sc2ccccc2c1Cl)C(=O)c1c(C(F)F)nn(C)c1F` [Example 142]: 80%, 100% and 3.48.
The like results for `Cc1nc(-c2ccccc2)sc1CN(C)C(=O)c1c(C(F)F)nn(C)c1F` [Example 149] were, in that order, 80%, 80% and 2.77.
The like results for `Cn1nc(C(F)F)c(C(=O)N(Cc2cc(-c3ccc(Cl)cc3)no2)C2CC2)c1F` [Example 153] were, in that order, 90%, 100% and 3.46.
Take `CC(c1csc2ccccc12)N(C(=S)c1c(C(F)F)nn(C)c1F)C1CC1` (racemic) [Example 86]: the results for the Efficacy in the data set on Alternaria solani and in the data set on Pyrenophora teres were 70% and 100%, respectively. Further, the logP in data set [1] (setting [2]) is 4.44.
On to `CN(Cc1cscc1Br)C(=O)c1c(C(F)F)nn(C)c1F` [Example 133], for which the Efficacy with Alternaria solani is 70%; in the data set with Pyrenophora teres it was 90%. In data set [1] (setting [2]), this compound came in with a log partition coefficient (logP) of 2.52.
On to `Cn1nc(C(F)F)c(C(=S)N(Cc2cc3ccccc3o2)C2CC2)c1F` [Example 73], for which the Efficacy came out at 85% in the data set with Sphaerotheca fuliginea, 90% in the data set on Alternaria solani and 100% with Pyrenophora teres. This compound also showed a log partition coefficient (logP) in data set [1] (setting [2]) of 3.76.
In the case of `CC(c1cnc(Cl)c(Cl)c1)N(C(=O)c1c(C(F)F)nn(C)c1F)C1CC1` (centres unmarked) [Example 121], the values for the Efficacy with Alternaria solani and with Pyrenophora teres were 95% and 100%, respectively. Besides, the logP in data set [1] (setting [2]) stood at 3.11.
The like results for `Cn1nc(C(F)F)c(C(=O)N(Cc2cccc3ccsc23)C2CC2)c1Cl` [Example 94] were, in that order, 95%, 95% and 3.31.
`Cc1nc(C(F)(F)F)c(CN(C(=O)c2c(C(F)F)nn(C)c2F)C2CC2)s1` [Example 140]: the Efficacy is 100% with Sphaerotheca fuliginea, 80% with Alternaria solani and 100% in the data set with Pyrenophora teres. For the same compound, the logP in data set [1] (setting [2]) is listed as 2.75.
For `Cc1c(CN(C(=S)c2c(C(F)F)nn(C)c2F)C2CC2)sc2ccccc12` [Example 124], the Efficacy with Sphaerotheca fuliginea is 98%; with Alternaria solani, 100%; in the data set on Pyrenophora teres, 100%. Also, the log partition coefficient (logP) in data set [1] (setting [2]) was 4.31.
On to `Cn1nc(C(F)F)c(C(=O)N(Cc2cccs2)C2CC2)c1F` [Example 32], for which the Efficacy with Sphaerotheca fuliginea is 95%; in the data set on Alternaria solani, 70%; with Pyrenophora teres it was 100%. Moreover, the logP in data set [1] (setting [2]) is 2.59.
On to `CC(c1cc(Cl)sc1Cl)N(C(=O)c1c(C(F)F)nn(C)c1Cl)C1CC1` (centres unmarked) [Example 127], for which the Efficacy with Alternaria solani and in the data set on Pyrenophora teres was 95% throughout. Moreover, the logP in data set [1] (setting [2]) is 4.24.
For the compound `Cn1nc(C(F)F)c(C(=O)N(Cc2nc3ccccc3s2)C2CC2)c1F` [Example 98], the results for the Efficacy with Alternaria solani and with Pyrenophora teres were 80% and 100%, respectively. In addition, in data set [1] (setting [2]), the lipophilicity (logP) is on record as 2.68.
The matching figures for `Cn1nc(C(F)F)c(C(=O)N(Cc2cc(CC(C)(C)C)no2)C2CC2)c1F` [Example 106]: 95%, 100% and 3.17.
For the compound `Cc1nn(-c2ccccc2)nc1CN(C(=O)c1c(C(F)F)nn(C)c1F)C1CC1` [Example 131], the values for the Efficacy with Sphaerotheca fuliginea, with Alternaria solani and in the data set on Pyrenophora teres were 97%, 90% and 95%, respectively. The same compound registered a log partition coefficient (logP) in data set [1] (setting [2]) of 3.29.
Take `Cc1nc(-c2ccc(Cl)cc2)sc1CN(C(=O)c1c(C(F)F)nn(C)c1F)C1CC1` [Example 167]: the figures for the Efficacy in the data set with Alternaria solani and with Pyrenophora teres were 90% and 100%, respectively. Further, the log partition coefficient (logP) in data set [1] (setting [3]) was 3.85.
As to `CN(Cc1cc(CC(C)(C)C)no1)C(=O)c1c(C(F)F)nn(C)c1F` [Example 105], the figures for the Efficacy in the data set with Alternaria solani and in the data set with Pyrenophora teres were 95% and 100%, respectively. The compound also showed a lipophilicity (logP) in data set [1] (setting [2]) of 2.75.

Usually logP stands for a log measure of how a compound divides between an organic and an aqueous phase. Higher therefore signals a more lipophilic compound.
